Reference: article PMC6039436, “Radiobrominated benzimidazole-quinoline derivatives as Platelet-derived growth factor receptor beta (PDGFRβ) imaging probes” (Scientific Reports, 2018)
Marks after values point to notes of the source that are not given here.

What was measured:
PDGFRβ (BxPC3-luc cells) = target: T1, PDGFRβ (BxPC3-luc cells) (Homo sapiens, UniProt P09619); assay: Competitive binding assay of [^125I]4 with BxPC3-luc cells; conditions: displacement of [^125I]4, BxPC3-luc cells, 37 °C, 4 h
T1 construct: host or cells: BxPC3-luc cells
Protocol: We investigated the competitive binding of [^125I]4 to BxPC3-luc cells with PDGFRβ ligand, 1, 2, and 3.
BxPC3-luc cells in medium containing 10% FBS and antibiotics were seeded on 24-well plates (50,000 cells/wells) and incubated for 24 h in a 5% CO2 incubator at 37 °C. Nine concentrations of displacing nonradiolabeled ligands (1, 2 and 3) (ranging from 1 pM to 1 mM) and [^125I]4 in medium without FBS were incubated at 37 °C for 4 h. After washing the cells twice using 250 µL of ice-cold PBS, the unbound radioligand was removed. The cells were dissolved using 250 µL of 1 M NaOH and wells were washed with 250 µL of 1 M NaOH. The bound radioactivity was determined using a gamma counter.
All data were statisticaly analyzed using GraphPad 5.0 software (La Jolla, CA, USA) and expressed as mean ± standard deviation (SD). Significance for in vitro blocking experiments was determined by a one-way analysis of variance (ANOVA) followed by Dunnett’s post hoc test compared to the control group. Significance in cell viability assays was determined by ANOVA followed by Tukey’s post hoc test. IC50 values for the binding assay were calculated by nonlinear regression. Significant differences in biodistribution experiments between [^77Br]2 and [^77Br]3 groups were determined using unpaired Student’s t-test. Significance for in vivo blocking studies between control and blocking groups were determined by unpaired Student’s t-test. Results were considered statistically significant at p < 0.05.

[1] = Biodistribution in ddY mice; format: in vivo; conditions: i.v. co-injection
Protocol: In this study, to minimize both the number of mice consumed in the experiment and the potential for experimental errors, we co-injected radiobrominated and radioiodinated compounds into mice[30],[31]. High radioactivity in the liver, small intestine, and large intestine was observed.
(§1) Mice were intravenously injected via the tail with 100 µL of saline solution of [^77Br]2 and [^125I]4 or [^77Br]3 and [^125I]5 (74 kBq, respectively), containing 10% ethanol and 1% tween-80. The ddY mice were sacrificed at 10 min, 1, 4, and 24 h postinjection. Meanwhile, tumor-bearing mice were sacrificed at 1 h postinjection.
(§2) Tissues in mice were resected and weighed. The radioactivity of the tissues was counted by a gamma counter and counts were corrected for background radiation. The data were expressed as percent injection dose per gram tissue (%ID/g).

BxPC3-luc tumor = assay: Biodistribution in BxPC3-luc tumor-bearing mice; format: in vivo, BALB/c nu/nu mice; conditions: i.v. co-injection, 1 h
Protocol: We investigated the biodistribution of the radiotracers in BxPC3-luc tumor-bearing mice by co-injecting [^77Br]2 with [^125I]4 (Table 3), and [^77Br]3 with [^125I]5 (Table 4).
Animal experiments were conducted in strict accordance with the Guidelines for the Care and Use of Laboratory Animals of Kanazawa University. The animal experimental protocols used were approved by the Committee on Animal Experimentation of Kanazawa University (Permit Number: AP-163766). The animals were housed with free access to food and water at approximately 23 °C with a 12 h light/dark schedule. ddY mice (six-week-old, male, 27–30 g) and BALB/c nu/nu mice (four-week-old, female, 12–17 g) were purchased from Japan SLC Inc. (Hamamatsu, Japan). For preparing the tumor-bearing mice, BxPC3-luc cells (5 × 10^6 cells) were subcutaneously injected into the left shoulder of BALB/c nu/nu mice. The tumor reached palpable size after two weeks of the inoculation.
as §1, §2

[2] = design: method as in PMID 28838832; conditions: radioiodinated compounds; cited from earlier work

T1 sequence (P09619 33-1106): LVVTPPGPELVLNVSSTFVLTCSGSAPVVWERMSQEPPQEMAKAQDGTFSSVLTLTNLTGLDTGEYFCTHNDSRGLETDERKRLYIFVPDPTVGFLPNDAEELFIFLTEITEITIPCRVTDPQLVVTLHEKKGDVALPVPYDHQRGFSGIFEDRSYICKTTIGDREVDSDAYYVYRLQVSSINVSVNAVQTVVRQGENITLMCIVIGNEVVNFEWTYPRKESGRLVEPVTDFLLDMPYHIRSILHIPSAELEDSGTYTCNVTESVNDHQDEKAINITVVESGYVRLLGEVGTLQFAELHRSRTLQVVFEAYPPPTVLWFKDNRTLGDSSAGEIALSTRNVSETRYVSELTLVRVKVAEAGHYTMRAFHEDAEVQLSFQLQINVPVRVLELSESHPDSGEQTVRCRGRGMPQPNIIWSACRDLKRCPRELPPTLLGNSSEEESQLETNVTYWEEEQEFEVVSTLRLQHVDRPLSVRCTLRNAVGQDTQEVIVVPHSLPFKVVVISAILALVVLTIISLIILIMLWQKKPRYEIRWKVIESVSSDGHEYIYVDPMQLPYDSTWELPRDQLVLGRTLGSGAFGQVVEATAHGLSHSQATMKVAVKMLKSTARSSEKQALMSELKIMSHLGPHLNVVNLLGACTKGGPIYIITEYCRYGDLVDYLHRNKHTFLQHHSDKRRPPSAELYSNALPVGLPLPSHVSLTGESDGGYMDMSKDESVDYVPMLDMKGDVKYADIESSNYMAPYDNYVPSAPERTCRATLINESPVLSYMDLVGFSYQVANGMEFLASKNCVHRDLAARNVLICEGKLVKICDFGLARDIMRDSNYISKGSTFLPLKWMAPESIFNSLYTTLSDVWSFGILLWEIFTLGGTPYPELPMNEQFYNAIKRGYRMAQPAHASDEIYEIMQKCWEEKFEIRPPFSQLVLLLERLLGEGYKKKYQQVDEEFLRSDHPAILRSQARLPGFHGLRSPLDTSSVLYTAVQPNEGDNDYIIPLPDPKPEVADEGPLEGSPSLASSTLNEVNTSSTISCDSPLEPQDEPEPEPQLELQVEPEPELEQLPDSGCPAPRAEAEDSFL

SMILES: COCCOc1ccc2c(c1)ncn2-c1ccc2cccc(N3CCC(N)CC3)c2n1 [Compound 1, 1-{2-[5-(2-methoxyethoxy)-1H-benzo[d]imidazol-1-yl]quinolin-8-yl}piperidin-4-amine, reference compound]
- IC50 (PDGFRβ (BxPC3-luc cells)): 0.183 ± 0.008 µM

SMILES: COCCOc1ccc2c(c1)ncn2-c1ccc2cccc(N3CCC(NC(=O)c4cccc([125I])c4)CC3)c2n1 [[^125I]5, [^125I]N-3-iodobenzoyl-1-{2-[5-(2-methoxyethoxy)-1H-benzo[d]imidazol-1-yl]quinolin-8-yl}-piperidin-4-amine, reference compound]
- Radioactivity in Blood ([1]; 10 min): 0.94 (0.14)^** %injected dose/gram tissue
- Radioactivity in Bone ([1]; 10 min): 0.81 (0.11)^** %injected dose/gram tissue
- Radioactivity in Brain ([1]; 10 min): 0.19 (0.03)^** %injected dose/gram tissue
- Radioactivity in Heart ([1]; 10 min): 1.66 (0.23)^** %injected dose/gram tissue
- Radioactivity in Kidney ([1]; 10 min): 5.23 (0.65) %injected dose/gram tissue
- Radioactivity in Large intestine ([1]; 10 min): 0.75 (0.06)^* %injected dose/gram tissue
- Radioactivity in Liver ([1]; 10 min): 16.37 (2.05)^** %injected dose/gram tissue
- Radioactivity in Lung ([1]; 10 min): 1.80 (0.30)^* %injected dose/gram tissue
- Radioactivity in Muscle ([1]; 10 min): 0.97 (0.16)^* %injected dose/gram tissue
- Radioactivity in Pancreas ([1]; 10 min): 2.41 (0.20) %injected dose/gram tissue
- Radioactivity in Small intestine ([1]; 10 min): 9.59 (1.71)^** %injected dose/gram tissue
- Radioactivity in Spleen ([1]; 10 min): 1.72 (0.23) %injected dose/gram tissue
- Radioactivity in Stomach ([1]; 10 min): 2.09 (1.12) %injected dose /organ
- Radioactivity in Blood ([1]; 1 h): 0.26 (0.05)^** %injected dose/gram tissue
- Radioactivity in Bone ([1]; 1 h): 0.64 (0.31)^*** %injected dose/gram tissue
- Radioactivity in Brain ([1]; 1 h): 0.07 (0.03)^** %injected dose/gram tissue
- Radioactivity in Heart ([1]; 1 h): 0.39 (0.15)^** %injected dose/gram tissue
- Radioactivity in Kidney ([1]; 1 h): 1.57 (0.42) %injected dose/gram tissue
- Radioactivity in Large intestine ([1]; 1 h): 3.46 (2.18) %injected dose/gram tissue
- Radioactivity in Liver ([1]; 1 h): 3.32 (0.49)^** %injected dose/gram tissue
- Radioactivity in Lung ([1]; 1 h): 1.07 (0.08) %injected dose/gram tissue
- Radioactivity in Muscle ([1]; 1 h): 0.31 (0.13)^* %injected dose/gram tissue
- Radioactivity in Pancreas ([1]; 1 h): 0.86 (0.07)^** %injected dose/gram tissue
- Radioactivity in Small intestine ([1]; 1 h): 24.03 (1.45)^** %injected dose/gram tissue
- Radioactivity in Spleen ([1]; 1 h): 0.70 (0.16)^** %injected dose/gram tissue
- Radioactivity in Stomach ([1]; 1 h): 0.78 (0.19) %injected dose /organ
- Radioactivity in Blood ([1]; 4 h): 0.08 (0.01)^** %injected dose/gram tissue
- Radioactivity in Bone ([1]; 4 h): 0.40 (0.09)^** %injected dose/gram tissue
- Radioactivity in Brain ([1]; 4 h): 0.01 (0.00)^** %injected dose/gram tissue
- Radioactivity in Heart ([1]; 4 h): 0.20 (0.04)^** %injected dose/gram tissue
- Radioactivity in Kidney ([1]; 4 h): 0.36 (0.10)^* %injected dose/gram tissue
- Radioactivity in Large intestine ([1]; 4 h): 18.55 (1.85)^** %injected dose/gram tissue
- Radioactivity in Liver ([1]; 4 h): 1.21 (0.96) %injected dose/gram tissue
- Radioactivity in Lung ([1]; 4 h): 0.50 (0.19) %injected dose/gram tissue
- Radioactivity in Muscle ([1]; 4 h): 0.16 (0.08)^* %injected dose/gram tissue
- Radioactivity in Pancreas ([1]; 4 h): 0.27 (0.07)^** %injected dose/gram tissue
- Radioactivity in Small intestine ([1]; 4 h): 1.32 (0.66)^* %injected dose/gram tissue
- Radioactivity in Spleen ([1]; 4 h): 0.27 (0.09)^** %injected dose/gram tissue
- Radioactivity in Stomach ([1]; 4 h): 0.27 (0.10) %injected dose /organ
- Radioactivity in Blood ([1]; 24 h): 0.01 (0.00)^** %injected dose/gram tissue
- Radioactivity in Bone ([1]; 24 h): 0.06 (0.00)^** %injected dose/gram tissue
- Radioactivity in Brain ([1]; 24 h): 0.00 (0.00)^** %injected dose/gram tissue
- Radioactivity in Heart ([1]; 24 h): 0.02 (0.01)^** %injected dose/gram tissue
- Radioactivity in Kidney ([1]; 24 h): 0.05 (0.00)^** %injected dose/gram tissue
- Radioactivity in Large intestine ([1]; 24 h): 0.02 (0.00)^** %injected dose/gram tissue
- Radioactivity in Liver ([1]; 24 h): 0.06 (0.00)^** %injected dose/gram tissue
- Radioactivity in Lung ([1]; 24 h): 0.01 (0.00)^** %injected dose/gram tissue
- Radioactivity in Muscle ([1]; 24 h): 0.01 (0.00)^** %injected dose/gram tissue
- Radioactivity in Pancreas ([1]; 24 h): 0.02 (0.00)^** %injected dose/gram tissue
- Radioactivity in Small intestine ([1]; 24 h): 0.01 (0.00)^** %injected dose/gram tissue
- Radioactivity in Spleen ([1]; 24 h): 0.02 (0.00)^** %injected dose/gram tissue
- Radioactivity in Stomach ([1]; 24 h): 0.01 (0.00)^** %injected dose /organ
- Radioactivity in Blood (BxPC3-luc tumor): 0.23 (0.02)^** %injected dose/gram of tissue
- Radioactivity in Bone (BxPC3-luc tumor): 0.31 (0.04)^** %injected dose/gram of tissue
- Radioactivity in Brain (BxPC3-luc tumor): 0.05 (0.00)^** %injected dose/gram of tissue
- Radioactivity in BxPC3-luc tumor (BxPC3-luc tumor): 0.55 (0.09)^* %injected dose/gram of tissue
- Radioactivity in Heart (BxPC3-luc tumor): 0.42 (0.05)^** %injected dose/gram of tissue
- Radioactivity in Kidney (BxPC3-luc tumor): 1.13 (0.11)^** %injected dose/gram of tissue
- Radioactivity in Large intestine (BxPC3-luc tumor): 7.98 (3.79) %injected dose/gram of tissue
- Radioactivity in Liver (BxPC3-luc tumor): 4.83 (0.71)^** %injected dose/gram of tissue
- Radioactivity in Lung (BxPC3-luc tumor): 1.16 (0.23)^** %injected dose/gram of tissue
- Radioactivity in Muscle (BxPC3-luc tumor): 0.38 (0.06)^** %injected dose/gram of tissue
- Radioactivity in Pancreas (BxPC3-luc tumor): 1.25 (0.17)^** %injected dose/gram of tissue
- Radioactivity in Small intestine (BxPC3-luc tumor): 46.95 (2.88)^** %injected dose/gram of tissue
- Radioactivity in Spleen (BxPC3-luc tumor): 0.61 (0.06)^** %injected dose/gram of tissue
- Radioactivity in Stomach (BxPC3-luc tumor): 0.27 (0.06)^* %injected dose /organ
- n-octanol/phosphate buffer partition coefficient (log P) [2]: 3.19 ± 0.17

SMILES: COCCOc1ccc2c(c1)ncn2-c1ccc2cccc(N3CCC(NC(=O)c4cccc(Br)c4)CC3)c2n1 [Compound 3, N-3-bromobenzoyl-1-{2-[5-(2-methoxyethoxy)-1H-benzo[d]imidazol-1-yl]quinolin-8-yl}-piperidin-4-amine]
- IC50 (PDGFRβ (BxPC3-luc cells)): 1.28 µM
